The values that follow come from PubChem BioAssay (NCI).

Test systems include A498 renal; DU-145 prostate; MDA-MB-435; MOLT-4 leukemia; NCI-H23 lung; OVCAR-4 ovarian; SK-MEL-2 melanoma; SK-MEL-5 melanoma; SK-OV-3 ovarian; UO-31 renal.
Common to all, as to assay: growth of human tumour cells (NCI), 48 h

Structures are written as SMILES.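 Five compound concentrations were applied to cells in 96-well plates for 48 hours; endpoints were derived by simple linear interpolation of the resulting dose-response curve. GI50 = concentration required for 50% inhibition of growth. Definition used: TGI = concentration required for complete inhibition of growth.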 A value given as a limit tells only on which side of the number the result lay.

As to `CCCCCCCCCCC(C(O)c1ccccc1)N1CCCCC1` (stereo not given), the GI50 is 1.92 µM in the test on A498 renal; 2.07 µM in the test on DU-145 prostate; 1.66 µM in the test on MDA-MB-435; 2.23 µM in the test with MOLT-4 leukemia; 2.27 µM with NCI-H23 lung; 3.66 µM with OVCAR-4 ovarian. Further, the GI50 in the test with SK-MEL-2 melanoma is 2.25 µM; with SK-MEL-5 melanoma, 1.69 µM; in the test on SK-OV-3 ovarian it was 2.59 µM; in the test on UO-31 renal, 1.24 µM. For the same molecule, the TGI was 6.77 µM in the test with A498 renal; 6.72 µM in the test with DU-145 prostate; 3.03 µM in the test with MDA-MB-435; 5.86 µM in the test on MOLT-4 leukemia; 5.97 µM in the test on NCI-H23 lung; 13.2 µM with OVCAR-4 ovarian. Also, the TGI with SK-MEL-2 melanoma was found to be 4.84 µM; in the test on SK-MEL-5 melanoma it was 3.06 µM; in the test on SK-OV-3 ovarian it was 7.82 µM; in the test with UO-31 renal it was 2.84 µM.
With `COC(=O)CCC1CCC(c2cc(F)ccc2F)(S(=O)(=O)c2ccc(Cl)cc2)CC1` (stereo not given), the GI50 is 40.4 µM in the test on A498 renal; > 100 µM in the test on DU-145 prostate; 88.5 µM in the test with MDA-MB-435; 49.8 µM in the test on MOLT-4 leukemia; 42.5 µM in the test with NCI-H23 lung; 45.5 µM in the test with OVCAR-4 ovarian. For the same molecule, the GI50 in the test with SK-MEL-2 melanoma was 62 µM; in the test on SK-MEL-5 melanoma, 28.4 µM; with SK-OV-3 ovarian, > 100 µM; with UO-31 renal it was 28 µM. The TGI in the test with A498 renal, in the test with DU-145 prostate, in the test on MDA-MB-435, with MOLT-4 leukemia, in the test on NCI-H23 lung and in the test on OVCAR-4 ovarian was > 100 µM throughout. Moreover, the TGI in the test with SK-MEL-2 melanoma, with SK-MEL-5 melanoma, in the test on SK-OV-3 ovarian and in the test with UO-31 renal was > 100 µM throughout.
As for `O=C(Nc1ccc2[nH]c(=S)sc2c1)Nc1ccccc1F`, the GI50 in the test with A498 renal is 40.5 µM; with DU-145 prostate, 59.4 µM; in the test on MDA-MB-435 it was 23.1 µM; in the test on MOLT-4 leukemia, 22.4 µM; in the test on NCI-H23 lung, 35.8 µM; in the test with OVCAR-4 ovarian, 21 µM. Besides, the GI50 is 26.7 µM in the test on SK-MEL-2 melanoma, 17.3 µM with SK-MEL-5 melanoma, > 100 µM in the test on SK-OV-3 ovarian and 4.09 µM with UO-31 renal. In addition, the TGI with A498 renal, in the test with DU-145 prostate, in the test on MDA-MB-435, with MOLT-4 leukemia, in the test on NCI-H23 lung and in the test on OVCAR-4 ovarian was > 100 µM in each case. The TGI with SK-MEL-2 melanoma is > 100 µM; in the test with SK-MEL-5 melanoma, 84.1 µM; in the test with SK-OV-3 ovarian, > 100 µM; in the test on UO-31 renal, 22.5 µM.
Turning to `C=C(C)[C@@H]1CC[C@]2(C)[C@H](CC=C3[C@@H]4[C@@H](C)[C@H](C)CC[C@]4(C(N)=O)CC[C@]32C)[C@@]1(C)CCC#N`, the GI50 was 11 µM in the test with A498 renal; 4.41 µM in the test on DU-145 prostate; 4.36 µM in the test on MDA-MB-435; 2.92 µM in the test with MOLT-4 leukemia; 5.72 µM in the test on NCI-H23 lung; 3.74 µM in the test on OVCAR-4 ovarian. Besides, the GI50 in the test on SK-MEL-2 melanoma was 6.98 µM; in the test on SK-MEL-5 melanoma, 2.71 µM; in the test with SK-OV-3 ovarian, 7.31 µM; with UO-31 renal, 3.46 µM. Besides, the TGI with A498 renal is 44.5 µM; with DU-145 prostate, 26.4 µM; with MDA-MB-435, > 100 µM; in the test with MOLT-4 leukemia it was 21 µM; with NCI-H23 lung it was > 100 µM; with OVCAR-4 ovarian, > 100 µM. Moreover, the TGI in the test on SK-MEL-2 melanoma is 23.2 µM; in the test with SK-MEL-5 melanoma it was 8.16 µM; in the test with SK-OV-3 ovarian, > 100 µM; in the test on UO-31 renal it was 26.1 µM.
As for `COC(=O)C1CCCN1C(=O)[C@@H]1CCCN1C(=O)[C@H](Cc1c[nH]c2ccccc12)NC(=S)Nc1cc(C(F)(F)F)cc(C(F)(F)F)c1` (stereo not given in full), the GI50 is 2.15 µM in the test on A498 renal; 2.52 µM with DU-145 prostate; 3.03 µM in the test with MDA-MB-435; 2.04 µM with MOLT-4 leukemia; 2.78 µM with NCI-H23 lung; 3.18 µM in the test on OVCAR-4 ovarian. Also, the GI50 in the test on SK-MEL-2 melanoma is 2.24 µM; with SK-MEL-5 melanoma, 2.63 µM; in the test with SK-OV-3 ovarian, 2.95 µM; with UO-31 renal, 3.63 µM. In addition, the TGI with A498 renal turned out to be 6.65 µM; in the test with DU-145 prostate it was 6.47 µM; in the test on MDA-MB-435, 12.4 µM; in the test with MOLT-4 leukemia, 8.62 µM; in the test with NCI-H23 lung, 10 µM; with OVCAR-4 ovarian it was 11.2 µM. Further, the TGI with SK-MEL-2 melanoma is 4.25 µM; with SK-MEL-5 melanoma, 7.61 µM; in the test on SK-OV-3 ovarian it was 11.4 µM; with UO-31 renal, 14.5 µM.
In the case of `Clc1ccc2nnnn2n1`, the GI50 in the test on A498 renal is 15.1 µM; with DU-145 prostate, 2.31 µM; in the test on MDA-MB-435 it was 2.13 µM; in the test on MOLT-4 leukemia, 3.26 µM; in the test with NCI-H23 lung, 5.98 µM; in the test with OVCAR-4 ovarian, 5.21 µM. Also, the GI50 in the test on SK-MEL-2 melanoma was 2.88 µM; in the test with SK-MEL-5 melanoma it was 2.24 µM; with SK-OV-3 ovarian, 10.5 µM; with UO-31 renal, 3.52 µM. Moreover, the TGI amounted to 54.9 µM in the test with A498 renal; 6.41 µM with DU-145 prostate; 5.39 µM in the test on MDA-MB-435; 44.5 µM in the test with MOLT-4 leukemia; 35.4 µM in the test with NCI-H23 lung; 17.7 µM with OVCAR-4 ovarian. Besides, the TGI in the test on SK-MEL-2 melanoma is 20.7 µM; in the test with SK-MEL-5 melanoma, 6.19 µM; in the test on SK-OV-3 ovarian it was 92.9 µM; in the test with UO-31 renal, > 100 µM.
With `OC(CNCC1CCCO1)Cn1c2ccc(Cl)cc2c2cc(Cl)ccc21` (stereo not given), the GI50 with A498 renal was 1.06 µM; in the test on DU-145 prostate, 1.83 µM; with MDA-MB-435, 1.66 µM; with MOLT-4 leukemia it was 2.09 µM; in the test on NCI-H23 lung, 1.92 µM; in the test with OVCAR-4 ovarian it was 1.75 µM. Further, the GI50 is 2.29 µM with SK-MEL-2 melanoma, 1.77 µM in the test with SK-MEL-5 melanoma, 2.08 µM in the test on SK-OV-3 ovarian and 1.61 µM in the test with UO-31 renal. The TGI with A498 renal was 8.83 µM; with DU-145 prostate it was 3.37 µM; in the test on MDA-MB-435, 3.02 µM; with MOLT-4 leukemia, 4.65 µM; in the test with NCI-H23 lung, 3.61 µM; in the test with OVCAR-4 ovarian, 4.32 µM. Further, the TGI came to 4.28 µM with SK-MEL-2 melanoma, 3.26 µM in the test with SK-MEL-5 melanoma, 4.19 µM in the test on SK-OV-3 ovarian and 3.15 µM in the test with UO-31 renal.
